Results as given in paper PMC8508980, “Design, Synthesis and Anticancer Profile of New 4-(1H-benzo[d]imidazol-1-yl)pyrimidin-2-amine-Linked Sulfonamide Derivatives with V600EBRAF Inhibitory Effect” (International Journal of Molecular Sciences, 2021).

What was measured:
BRAF (wild-type) = molecular target: T1, BRAF (wild-type) (Homo sapiens, UniProt P15056); assay: Reaction Biology kinase HotSpot enzyme assay; type: biochemical; conditions: 1 µM ATP; mean ± S.D. of two separate experiments
T1 construct: purchased Reaction Biology Corp. (Kinase HotSpot service)
T1 sequence (P15056 whole entry): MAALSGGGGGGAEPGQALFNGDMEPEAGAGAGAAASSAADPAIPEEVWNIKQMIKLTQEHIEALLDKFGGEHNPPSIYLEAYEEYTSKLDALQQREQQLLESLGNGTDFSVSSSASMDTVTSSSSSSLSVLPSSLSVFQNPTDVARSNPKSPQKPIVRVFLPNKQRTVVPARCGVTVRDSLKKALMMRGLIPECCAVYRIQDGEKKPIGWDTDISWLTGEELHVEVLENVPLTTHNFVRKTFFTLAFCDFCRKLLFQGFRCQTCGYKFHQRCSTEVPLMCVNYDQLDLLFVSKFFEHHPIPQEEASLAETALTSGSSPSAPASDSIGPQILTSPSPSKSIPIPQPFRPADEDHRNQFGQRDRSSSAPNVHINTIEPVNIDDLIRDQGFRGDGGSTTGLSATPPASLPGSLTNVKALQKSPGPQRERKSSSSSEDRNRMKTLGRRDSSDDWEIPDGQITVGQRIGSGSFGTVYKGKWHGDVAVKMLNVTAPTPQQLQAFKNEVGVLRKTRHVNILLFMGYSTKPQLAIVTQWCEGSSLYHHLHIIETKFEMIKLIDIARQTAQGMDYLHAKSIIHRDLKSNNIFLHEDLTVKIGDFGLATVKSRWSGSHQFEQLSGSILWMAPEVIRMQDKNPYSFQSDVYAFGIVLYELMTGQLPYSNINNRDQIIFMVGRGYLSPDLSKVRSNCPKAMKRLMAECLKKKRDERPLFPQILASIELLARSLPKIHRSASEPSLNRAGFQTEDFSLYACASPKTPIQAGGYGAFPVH
Protocol: The enzymatic assays were performed in Reaction Biology Corp. using the standard protocol at 1 µM ATP and threefold dilution factor (detailed procedure is found in the Supplementary Information page 52 s).
(§1) Reaction Biology Corp. Kinase HotSpotTM service http://www.reactionbiology.com was used for screening of compounds IC50 Proﬁler Express for IC50 measurement. Assay protocol: In a ﬁnal reaction volume of 25 μL, kinase (5–10 mU) is incubated with 25 mM Tris pH 7.5, 0.02 mM EGTA, 0.66 mg/mL myelin basic protein, 10 mM magnesium acetate and [γ33P-ATP] (speciﬁc activity approx. 500 cpm/pmol, concentration as required). The reaction is initiated by the addition of the Mg-ATP mix. After incubation for 40 min at room temperature, the reaction is stopped by the addition of 5 μL of a 3% phosphoric acid solution. 10 μL of the reaction is then spotted onto a P30 ﬁltermat, and washed three times for 5 min in 75 mM phosphoric acid and once in methanol prior to drying and scintillation counting.

CRAF = CRAF (Homo sapiens, UniProt P04049); assay: Reaction Biology kinase HotSpot enzyme assay; type: biochemical; conditions: 1 µM ATP; mean ± S.D. of two separate experiments; read-out: IC50 CRAF
Chain of CRAF (P04049 whole entry): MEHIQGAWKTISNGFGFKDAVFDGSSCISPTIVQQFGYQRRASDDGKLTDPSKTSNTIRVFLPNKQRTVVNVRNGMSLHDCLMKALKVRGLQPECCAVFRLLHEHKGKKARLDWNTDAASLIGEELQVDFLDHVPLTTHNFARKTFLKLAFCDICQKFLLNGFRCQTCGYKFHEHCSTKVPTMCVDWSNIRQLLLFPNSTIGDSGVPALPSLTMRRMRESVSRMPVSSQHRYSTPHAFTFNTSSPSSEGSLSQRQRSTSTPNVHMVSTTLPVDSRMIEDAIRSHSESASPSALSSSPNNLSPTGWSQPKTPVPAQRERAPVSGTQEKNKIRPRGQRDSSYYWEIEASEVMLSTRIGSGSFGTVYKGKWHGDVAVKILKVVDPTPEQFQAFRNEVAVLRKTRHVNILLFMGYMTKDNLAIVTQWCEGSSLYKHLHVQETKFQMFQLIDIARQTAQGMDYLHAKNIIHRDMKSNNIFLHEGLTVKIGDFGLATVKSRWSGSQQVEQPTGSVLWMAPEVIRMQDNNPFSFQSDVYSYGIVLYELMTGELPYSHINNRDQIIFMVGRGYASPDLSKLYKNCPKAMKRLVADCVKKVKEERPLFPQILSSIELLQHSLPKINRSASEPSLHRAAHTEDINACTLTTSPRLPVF
Protocol: as §1

V600EBRAF = molecular target: T2, V600EBRAF (Homo sapiens, UniProt P15056, V600E); assay: Reaction Biology kinase HotSpot enzyme assay; type: biochemical; conditions: 1 µM ATP; for IC50: mean ± S.D. of two separate experiments; for % Inhibition at 1 µM over V600EBRAF / inhibition at 1 µM: single dose 1 µM, mean ± S.D. of two experiments; for inhibition at 1 µM: read-out: % Inhibition at 1 µM over V600EBRAF
T2 construct: purchased Reaction Biology Corp. (Kinase HotSpot service)
T2 sequence (P15056 whole entry V600E): as the sequence (P15056 whole entry) above, with V600E counted along it
Protocol: Reaction Biology Corp. Kinase HotSpotTM service
as §1, with “Proﬁler” for “Reaction Biology Corp. Kinase HotSpotTM service http://www.reactionbiology.com was used for screening of compounds IC50 Proﬁler”

SF-295 = assay: NCI 60 cell line screen; type: cell-based, human; conditions: for activity at 10 µM: Homo sapiens, SF-295, CNS-Cancer, read-out: Percent growth
Protocol: (§2) Anticancer profiling over a panel of 60 cancer cell lines was carried out at the National Cancer Institute (NCI), Bethesda, Maryland, USA, https://dtp.cancer.gov/discovery_development/nci-60/methodology.htm (Last visit 22 September 2021), using the standard procedure (detailed procedure is located in the Supplementary Information page 50 s).
(§3) NCI standard procedure for 60 cell lines assay
(§4) The human tumor cell lines of the cancer screening panel are grown in RPMI 1640 mediu m containing 5% fetal bovine serum and 2 mM L-glutamine. For a typical screening experiment, cells are inoculated into 96 well microtiter plates in 100 μL at plating densities ranging from 5,000 to 40,000 cells/well depending on the doubling time of individual cell lines. After cell inoculation, the microtiter plates are incubated at 37° C, 5 % CO2, 95 % air and 100 % relative humidity for 24 h prior to addition of experimental drugs.
(§5) After 24 h, two plates of each cell line are fixed in situ with TCA, to represent a measurement of the cell population for each cell line at the time of drug addition (Tz). Experimental drugs are solubilized in dimethyl sulfoxide at 400-fold the desired final maximum test concentration (10 µM) and stored frozen prior to use. At the time of drug addition, an aliquot of frozen concentrate is thawed and diluted to twice the desired final maximum test concentration with co mp lete medium containing 50 μg/ml gentamicin. Additional four, 10-fold or ½ log serial dilutions are made to provide a total of five drug concentrations plus control. Aliquots of 100 μl of these different drug dilutions are added to the appropriate microtiter wells already containing 100 μl of medium, resulting in the required final drug concentrations.
(§6) Following drug addition, the plates are incubated for an additional 48 h at 37°C, 5 % CO2, 95 % air, and 100 % relative humidity. For adherent cells, the assay is terminated by the addition of cold TCA. Cells are fixed in situ by the gentle addition of 50 μl of cold 50 % (w/v) TCA (final concentration, 10 % TCA) and incubated for 60 minutes at 4°C. The supernatant is discarded, and the plates are washed five times with tap water and air dried. Sulforhodamine B (SRB) solution (100 μl) at 0.4 % (w/v) in 1 % acetic acid is added to each well, and plates are incubated for 10 minutes at room temperature. After staining, unbound dye is removed by washing five times with 1 % acetic acid and the plates are air dried. Bound stain is subsequently solubilized with 10 mM trizma base, and the absorbance is read on an automated plate reader at a wavelength of 515 nm. For suspension cells, the methodology is the same except that the assay is terminated by fixing settled cells at the bottom of the wells by g ently adding 50 μl of 80 % TCA (final concentration, 16 % TCA). Using the seven absorbance measurements [time zero, (Tz), control growth, (C), and test growth in the presence of drug at the five concentration levels (Ti)], the percentage growth is calculated at each of the drug concentrations levels. Percentage growth inhibition is calculated as:
(§7) [(Ti-Tz)/(C-Tz)] x 100 for concentrations for which Ti>/=Tz
(§8) [(Ti-Tz)/Tz] x 100 for concentrations for which Ti<Tz.
(§9) Three dose response parameters are calculated for each experimental agent. Growth inhibition of […]
(§10) resulting in a 50% reduction in the net protein increase (as measured by SRB staining) in control cells during the drug incubation. The drug concentration resulting in total growth inhibition […]
(§11) (TGI) is calculated from Ti = Tz.

OVCAR-4 = assay: NCI 60 cell line screen; type: cell-based, human; conditions: for activity at 10 µM: Homo sapiens, OVCAR-4, Ovarian Cancer, read-out: Percent growth
Protocol: as §2, §3, §4, §5, §6, §7, §8, §9, §10, §11

T-47D = assay: NCI 60 cell line screen; type: cell-based, human; conditions: for activity at 10 µM: Homo sapiens, T47D, Breast Cancer, read-out: Percent growth; for percent inhibition: NCI-60 heat map analysis
Protocol: as §2, §3, §4, §5, §6, §7, §8, §9, §10, §11

U251 = assay: NCI 60 cell line screen; type: cell-based, human; conditions: for activity at 10 µM: Homo sapiens, U-251, U251, CNS-Cancer, read-out: Percent growth
Protocol: as §2, §3, §4, §5, §6, §7, §8, §9, §10, §11

K-562 = assay: NCI 60 cell line screen; type: cell-based, human; conditions: Homo sapiens, K562; K-562, Leukemia; read-out: Percent growth
Protocol: as §2, §3, §4, §5, §6, §7, §8, §9, §10, §11

SR = assay: NCI 60 cell line screen; type: cell-based, human; conditions: for activity at 10 µM: Homo sapiens, Leukemia, read-out: Percent growth; for percent inhibition: NCI-60 heat map analysis
Protocol: as §2, §3, §4, §5, §6, §7, §8, §9, §10, §11

RXF 393 = assay: NCI 60 cell line screen; type: cell-based, human; conditions: for activity at 10 µM: Homo sapiens, RXF 393, Renal Cancer, read-out: Percent growth
Protocol: as §2, §3, §4, §5, §6, §7, §8, §9, §10, §11

NCI-H226 = assay: NCI 60 cell line screen; type: cell-based, human; conditions: for activity at 10 µM: Homo sapiens, NCI-H226, Non-Small Cell Lung Cancer, read-out: Percent growth
Protocol: as §2, §3, §4, §5, §6, §7, §8, §9, §10, §11

Row | SMILES | IC50 (BRAF (wild-type)) | IC50 (CRAF) | IC50 (V600EBRAF) | % Inhibition at 1 µM over V600EBRAF (V600EBRAF) | inhibition at 1 µM (V600EBRAF) | activity at 10 µM (SF-295) | activity at 10 µM (OVCAR-4) | activity at 10 µM (T-47D) | percent inhibition (T-47D) | activity at 10 µM (U251) | activity at 10 µM (K-562) | activity at 10 µM (SR) | percent inhibition (SR) | activity at 10 µM (RXF 393) | activity at 10 µM (NCI-H226) | percent inhibition (SF-295; SF-295, NCI-60 heat map analysis) | percent inhibition (OVCAR-4; OVCAR-4, NCI-60 heat map analysis) | percent inhibition (U251; U251, NCI-60 heat map analysis) | percent inhibition (RXF 393; RXF 393, NCI-60 heat map analysis) | percent inhibition (NCI-H226; NCI-H226, NCI-60 heat map analysis)
1 | O=S(=O)(NCCCNc1nccc(-n2cnc3ccccc32)n1)c1ccc(Br)cc1 [12k, N-(3-((4-(1H-benzo [d]imidazol-1-yl)pyrimidin-2-yl)amino)propyl)-4-bromo benzenesulfonamide] | 1530 ± 110 nM | 990 ± 85 nM | 810 ± 56 nM | 73.81 ± 0.75% | 74% | 86.5% | 72.1% | 45.3% | 55% | 96.6% | 73.5% | 70.8% | 30% | 111% | 80.2% |  |  |  |  | 
2 | O=S(=O)(NCCNc1nccc(-n2cnc3ccccc32)n1)c1ccc(C(F)(F)F)cc1 [12e, N-(2-((4-(1H-benzo [d]imidazol-1-yl)pyrimidin-2-yl)amino)ethyl)-4-(trifluoromethyl)benzenesulfonamide] | 1250 ± 95 nM | 1140 ± 88 nM | 620 ± 31 nM | 98.24 ± 0.44% | 98% | 44.7% | 28.4% | 22.3% | 77% | 42.4% | 40.8% | 35.5% | 65% | 38.2% | 62.7% | more than 50% | 71% | more than 50% |  | 
3 | COc1ccc(S(=O)(=O)NCCNc2nccc(-n3cnc4ccccc43)n2)cc1 [12f, N-(2-((4-(1H-benzo [d]imidazol-1-yl)pyrimidin-2-yl)amino)ethyl)-4-methoxy benzenesulfonamide] | 1980 ± 120 nM | 1670 ± 210 nM | 980 ± 20 nM | 55.21 ± 0.52% | 55% | 97% | 84.3% | 82.3% |  | 103% | 93% | 89.2% |  | 94.6% | 80.6% |  |  |  |  | 
4 | O=S(=O)(NCCCNc1nccc(-n2cnc3ccccc32)n1)c1ccc(C(F)(F)F)cc1 [12l, N-(3-((4-(1H-benzo [d]imidazol-1-yl)pyrimidin-2-yl)amino)propyl)-4-(trifluoromethyl) benzenesulfonamide] | 940 ± 65 nM | 840 ± 76 nM | 490 ± 61 nM | 98.75 ± 0.58% | 99% | 69.8% | 53% | 16.8% | 84% | 73.2% | 33.9% | 58% |  | 43.8% | 57.6% |  |  |  | 57% | around 40%
5 | COc1ccc(S(=O)(=O)NCCCNc2nccc(-n3cnc4ccccc43)n2)cc1 [12m, N-(3-((4-(1H-benzo [d]imidazol-1-yl)pyrimidin-2-yl)amino)propyl)-4-methoxy benzenesulfonamide] | 1460 ± 86 nM | 960 ± 79 nM | 820 ± 48 nM | 51.26 ± 0.29% | 51% | 90.5% | 77.4% | 66.3% |  | 94.5% | 78.8% | 77.6% |  | 80.6% | 73.2% |  |  |  |  | 
6 | O=S(=O)(NCCCNc1nccc(-n2cnc3ccccc32)n1)c1ccc(Cl)cc1 [12j, N-(3-((4-(1H-benzo [d]imidazol-1-yl)pyrimidin-2-yl)amino)propyl)-4-chloro benzenesulfonamide] | 1130 ± 99 nM | 1020 ± 77 nM | 790 ± 51 nM | 88.14 ± 0.19% | 88% | 97.8% | 83% | 65.3% |  | 100% | 79.2% | 81.5% |  | 124% | 83.2% |  |  |  |  | 
